# Values quoted from earlier work as cited in US20040110781A1 (priority 2002, published 2004).
# Tested on: excitory opioid receptors on sensory neurons
smiles,measurement,value
C[C@@H](NC(=O)[C@@H](N)Cc1ccc(O)cc1)C(=O)NCC(=O)N[C@@H](Cc1ccccc1)C(=O)NNC(=O)[C@H](Cc1ccccc1)NC(=O)CNC(=O)[C@@H](C)NC(=O)[C@@H](N)Cc1ccc(O)cc1 [biphalin],action on excitory opioid receptor functions,selective antagonists of excitory opioid receptors functions
